Experimental data taken from patent US20240384353A1, “METHODS OF TREATING PANCREATIC CANCER” (Fred Hutchinson Cancer Center, priority 2023, published 2024).

Tested on: human PDA tumors
Assay: Median survival by HMGA2/GATA6 status (IHC, tissue microarray of human PDA tumors) and first-line therapy
Assay type: in vivo
Details: first-line therapy, FIG. 12A-12B
Method: Expression levels of HMGA2 and GATA6 were determined separately in Tissue microarray comprising human PDA tumors from over 800 patients, along with matched (normal pancreatic tissue) controls and correlated to clinical data (stage at diagnosis, treatment history). These samples were stained and scored for HMGA2 (FIG. 9A) and GATA6.

Nc1ccn([C@@H]2O[C@H](CO)[C@@H](O)C2(F)F)c(=O)n1 [Gemcitabine]
overall median survival of HMGA2^high/GATA6^low tumors compared to HMGA2^low/GATA6^high tumors: overall low median survival
